ChEMBL document CHEMBL5385861, “Development of novel hydrazidoarylaminopyrimidine-based BTK/FLT3 dual inhibitors with potent in vivo anti-hematological malignancies effects” (Eur J Med Chem, 2023)
Active and inactive are the calls of the source. The rule behind the calls is not given here.

Tests used:
[1] = biological target: 1-phosphatidylinositol 4,5-bisphosphate phosphodiesterase gamma-2 (Homo sapiens) (UniProt P16885); assay: Inhibition of PLCgamma2 phosphorylation in human JeKo-1 cells incubated for 72 hrs by Western blot analysis; type: cell-based; conditions: dose 30-750 nM
[2] = biological target: Death-associated protein kinase 1 (Homo sapiens) (UniProt P53355); assay: Inhibition of DAPK1 (unknown origin) at 0.2 uM incubated for 40 mins by radiometric kinase assay relative to control
[3] = Toxicity in NOD/SCID mouse xenografted with human MV4-11 cells assessed as effect on body weight loss at 10 to 20 mg/kg, ip administered once daily for 21 days; type: organism-based; conditions: in vivo, 504 h, dose 10-20 mg/kg, time 21 day
[4] = test system: Tyrosine-protein kinase Tec; assay: Inhibition of TEC (unknown origin) at 0.2 uM incubated for 40 mins by radiometric kinase assay relative to control; conditions: Homo sapiens
[5] = Toxicity in NOD/SCID mouse xenografted with human JeKo-1 cells assessed as effect on body weight at 25 to 50 mg/kg, ip measured for 16 days; type: organism-based; conditions: in vivo, 384 h, dose 25-50 mg/kg, time 16 day
JeKo-1 [6] = assay: cells; conditions: Homo sapiens, JeKo-1, 72 h
Description: Antiproliferative activity against human JeKo-1 cells assessed as inhibition of cell growth incubated for 72 hrs by CCK8 assay

[7] = biological target: Macrophage colony-stimulating factor 1 receptor (Homo sapiens) (UniProt P07333); assay: Inhibition of Fms (unknown origin) at 0.2 uM incubated for 40 mins by radiometric kinase assay relative to control
[8] = biological target: Serine-protein kinase ATM (Homo sapiens) (UniProt Q13315); assay: Inhibition of ATM (unknown origin) at 0.2 uM incubated for 40 mins by radiometric kinase assay relative to control
[9] = biological target: Cytoplasmic tyrosine-protein kinase BMX (Homo sapiens) (UniProt P51813); assay: Inhibition of BMX (unknown origin) at 0.2 uM incubated for 40 mins by radiometric kinase assay relative to control
[10] = biological target: Tyrosine-protein kinase BTK (Homo sapiens, UniProt Q06187); assay: Inhibition of BTK (unknown origin) incubated for 40 mins by radiometric kinase assay
[11] = Toxicity in NOD/SCID mouse xenografted with human JeKo-1 cells assessed as eating abnormalities at 25 to 50 mg/kg, ip measured for 16 days; type: organism-based; conditions: in vivo, 384 h, dose 25-50 mg/kg, time 16 day
JeKo-1 [12] = assay: Induction of apoptosis in human JeKo-1 cells assessed as upregulation of cleaved caspase-3 protein expression incubated for 72 hrs by Western blot analysis; type: functional, cell-based; conditions: dose 30-750 nM
[13] = Toxicity in NOD/SCID mouse xenografted with human JeKo-1 cells assessed as drinking abnormalities at 25 to 50 mg/kg, ip measured for 16 days; type: organism-based; conditions: in vivo, 384 h, dose 25-50 mg/kg, time 16 day
[14] = biological target: Tyrosine-protein kinase receptor TYRO3 (Homo sapiens) (UniProt Q06418); assay: Inhibition of RSE (unknown origin) at 0.2 uM incubated for 40 mins by radiometric kinase assay relative to control
[15] = biological target: Inhibitor of nuclear factor kappa-B kinase subunit alpha (Homo sapiens) (UniProt O15111); assay: Inhibition of IKKalpha (unknown origin) at 0.2 uM incubated for 40 mins by radiometric kinase assay relative to control
JeKo-1 [16] = assay: Induction of apoptosis in human JeKo-1 cells assessed as necrotic cells at 150 nM incubated for 72 hrs by Annexin VFITC/PI staining based flow cytometry analysis (reference value: 0.67%); type: functional
JeKo-1 [17] = assay: Induction of apoptosis in human JeKo-1 cells assessed as downregulation of Bcl-2 protein expression at 30 to 750 nM incubated for 72 hrs by Western blot analysis; type: functional, cell-based; conditions: dose 30-750 nM
JeKo-1 [18] = assay: Induction of apoptosis in human JeKo-1 cells assessed as late apoptotic cells at 30 nM incubated for 72 hrs by Annexin VFITC/PI staining based flow cytometry analysis (reference value: 1.42%); type: functional
K562 = assay: Potency index, ratio of sorafenib IC50 to test compound IC50 for antiproliferative activity against human K562 cells; type: functional
JeKo-1 [19] = assay: Antitumor activity against human JeKo-1 cells xenografted NOD/SCID mouse assessed as reduction in tumor weight at 25 mg/kg, ip measured for 16 days; type: functional; conditions: time 16 day
[20] = biological target: Mast/stem cell growth factor receptor Kit (Homo sapiens) (UniProt P10721); assay: Inhibition of cKit (unknown origin) at 0.2 uM incubated for 40 mins by radiometric kinase assay relative to control
[21] = biological target: Tyrosine-protein kinase Blk (Homo sapiens) (UniProt P51451); assay: Inhibition of BLK (unknown origin) at 0.2 uM incubated for 40 mins by radiometric kinase assay relative to control
JeKo-1 [22] = assay: Potency index, ratio of sorafenib IC50 to test compound IC50 for antiproliferative activity against human JeKo-1 cells; type: functional
JeKo-1 [23] = assay: Potency index, ratio of ibrutinib IC50 to test compound IC50 for antiproliferative activity against human JeKo-1 cells; type: functional
JeKo-1 [24] = assay: Induction of apoptosis in human JeKo-1 cells assessed as late apoptotic cells at 750 nM incubated for 72 hrs by Annexin VFITC/PI staining based flow cytometry analysis (reference value: 1.42%); type: functional
[25] = biological target: PI3-kinase p110-alpha/p85-alpha (Homo sapiens) (UniProt P27986+P42336); assay: Inhibition of PI3 Kinase p110a/p85a (unknown origin) at 0.2 uM incubated for 40 mins by radiometric kinase assay relative to control; type: protein-complex assay
[26] = Acute toxicity in ICR mouse assessed as animal survival at 375 mg/kg, ip measured for 2 weeks; type: organism-based; conditions: in vivo
MOLT-4 = assay: Potency index, ratio of ibrutinib IC50 to test compound IC50 for antiproliferative activity against human MOLT-4 cells; type: functional
[27] = Metabolic stability in human liver microsome assessed as half life preincubated with compound for 5 mins followed by NADPH addition and measured upto 60 mins by LC-MS/MS analysis; type: ADME; conditions: liver microsomes, time < 65 min
JeKo-1 [28] = assay: Induction of apoptosis in human JeKo-1 cells assessed as necrotic cells at 750 nM incubated for 72 hrs by Annexin VFITC/PI staining based flow cytometry analysis (reference value: 0.67%); type: functional
MV4-11 [29] = assay: Antitumor activity against human MV4-11 cells xenografted NOD/SCID mouse assessed as increase in tumor necrotic cells at 10 mg/kg, ip administered once daily for 21 days by H and E staining analysis; type: functional, organism-based; conditions: time 21.0 day
[30] = biological target: Serine/threonine-protein kinase B-raf (Homo sapiens) (UniProt P15056); assay: Inhibition of B-Raf (unknown origin) at 0.2 uM incubated for 40 mins by radiometric kinase assay relative to control
MV4-11 [31] = assay: Antitumor activity against human MV4-11 cells xenografted NOD/SCID mouse assessed as increase in tumor necrotic cells at 20 mg/kg, ip administered once daily for 21 days by H and E staining analysis; type: functional, organism-based; conditions: time 21.0 day
[32] = biological target: Mitogen-activated protein kinase 9 (Homo sapiens) (UniProt P45984); assay: Inhibition of JNK2alpha2 (unknown origin) at 0.2 uM incubated for 40 mins by radiometric kinase assay relative to control
[33] = Metabolic stability in human liver microsome assessed as intrinsic clearance preincubated with compound for 5 mins followed by NADPH addition and measured upto 60 mins by LC-MS/MS analysis; type: ADME; conditions: liver microsomes, time < 65 min, read-out: CLH

Tyrosine-protein kinase receptor TYRO3 (Homo sapiens), sequence (Q06418 whole entry): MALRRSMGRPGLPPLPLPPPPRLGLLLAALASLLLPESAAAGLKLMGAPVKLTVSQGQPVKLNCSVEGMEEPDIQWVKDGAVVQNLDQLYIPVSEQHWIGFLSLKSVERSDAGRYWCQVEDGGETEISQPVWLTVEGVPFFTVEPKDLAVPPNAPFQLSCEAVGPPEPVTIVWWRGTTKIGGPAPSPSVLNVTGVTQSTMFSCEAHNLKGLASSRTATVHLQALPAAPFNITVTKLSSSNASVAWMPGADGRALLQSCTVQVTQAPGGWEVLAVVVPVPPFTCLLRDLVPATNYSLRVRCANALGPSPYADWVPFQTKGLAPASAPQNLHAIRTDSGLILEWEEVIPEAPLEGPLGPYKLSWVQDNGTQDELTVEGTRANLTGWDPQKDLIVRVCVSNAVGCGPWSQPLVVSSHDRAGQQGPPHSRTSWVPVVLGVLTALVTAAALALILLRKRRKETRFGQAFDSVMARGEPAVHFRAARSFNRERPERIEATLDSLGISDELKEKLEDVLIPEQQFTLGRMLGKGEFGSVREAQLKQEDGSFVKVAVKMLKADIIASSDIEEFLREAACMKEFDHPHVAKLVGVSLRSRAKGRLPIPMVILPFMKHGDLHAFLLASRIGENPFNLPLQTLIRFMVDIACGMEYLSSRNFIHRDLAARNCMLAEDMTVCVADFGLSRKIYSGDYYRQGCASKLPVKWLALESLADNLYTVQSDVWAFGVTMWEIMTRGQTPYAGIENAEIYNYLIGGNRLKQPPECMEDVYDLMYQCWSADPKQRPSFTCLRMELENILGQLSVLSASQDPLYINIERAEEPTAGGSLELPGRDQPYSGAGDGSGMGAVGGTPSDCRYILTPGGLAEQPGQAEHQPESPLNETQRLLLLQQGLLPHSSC
Mitogen-activated protein kinase 9 (Homo sapiens), sequence (P45984 whole entry, looked up): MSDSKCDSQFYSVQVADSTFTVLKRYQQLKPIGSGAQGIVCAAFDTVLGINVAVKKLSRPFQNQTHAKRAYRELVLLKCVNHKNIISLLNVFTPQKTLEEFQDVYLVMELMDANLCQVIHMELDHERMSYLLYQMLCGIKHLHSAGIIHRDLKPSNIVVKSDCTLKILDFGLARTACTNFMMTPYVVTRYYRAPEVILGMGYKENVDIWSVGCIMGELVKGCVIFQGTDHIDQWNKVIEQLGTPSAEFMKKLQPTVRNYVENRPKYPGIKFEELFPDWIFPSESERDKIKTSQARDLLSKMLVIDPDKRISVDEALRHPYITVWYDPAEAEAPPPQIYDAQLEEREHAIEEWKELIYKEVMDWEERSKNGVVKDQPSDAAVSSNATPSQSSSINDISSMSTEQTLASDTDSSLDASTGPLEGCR
Death-associated protein kinase 1 (Homo sapiens), sequence (P53355 whole entry, looked up): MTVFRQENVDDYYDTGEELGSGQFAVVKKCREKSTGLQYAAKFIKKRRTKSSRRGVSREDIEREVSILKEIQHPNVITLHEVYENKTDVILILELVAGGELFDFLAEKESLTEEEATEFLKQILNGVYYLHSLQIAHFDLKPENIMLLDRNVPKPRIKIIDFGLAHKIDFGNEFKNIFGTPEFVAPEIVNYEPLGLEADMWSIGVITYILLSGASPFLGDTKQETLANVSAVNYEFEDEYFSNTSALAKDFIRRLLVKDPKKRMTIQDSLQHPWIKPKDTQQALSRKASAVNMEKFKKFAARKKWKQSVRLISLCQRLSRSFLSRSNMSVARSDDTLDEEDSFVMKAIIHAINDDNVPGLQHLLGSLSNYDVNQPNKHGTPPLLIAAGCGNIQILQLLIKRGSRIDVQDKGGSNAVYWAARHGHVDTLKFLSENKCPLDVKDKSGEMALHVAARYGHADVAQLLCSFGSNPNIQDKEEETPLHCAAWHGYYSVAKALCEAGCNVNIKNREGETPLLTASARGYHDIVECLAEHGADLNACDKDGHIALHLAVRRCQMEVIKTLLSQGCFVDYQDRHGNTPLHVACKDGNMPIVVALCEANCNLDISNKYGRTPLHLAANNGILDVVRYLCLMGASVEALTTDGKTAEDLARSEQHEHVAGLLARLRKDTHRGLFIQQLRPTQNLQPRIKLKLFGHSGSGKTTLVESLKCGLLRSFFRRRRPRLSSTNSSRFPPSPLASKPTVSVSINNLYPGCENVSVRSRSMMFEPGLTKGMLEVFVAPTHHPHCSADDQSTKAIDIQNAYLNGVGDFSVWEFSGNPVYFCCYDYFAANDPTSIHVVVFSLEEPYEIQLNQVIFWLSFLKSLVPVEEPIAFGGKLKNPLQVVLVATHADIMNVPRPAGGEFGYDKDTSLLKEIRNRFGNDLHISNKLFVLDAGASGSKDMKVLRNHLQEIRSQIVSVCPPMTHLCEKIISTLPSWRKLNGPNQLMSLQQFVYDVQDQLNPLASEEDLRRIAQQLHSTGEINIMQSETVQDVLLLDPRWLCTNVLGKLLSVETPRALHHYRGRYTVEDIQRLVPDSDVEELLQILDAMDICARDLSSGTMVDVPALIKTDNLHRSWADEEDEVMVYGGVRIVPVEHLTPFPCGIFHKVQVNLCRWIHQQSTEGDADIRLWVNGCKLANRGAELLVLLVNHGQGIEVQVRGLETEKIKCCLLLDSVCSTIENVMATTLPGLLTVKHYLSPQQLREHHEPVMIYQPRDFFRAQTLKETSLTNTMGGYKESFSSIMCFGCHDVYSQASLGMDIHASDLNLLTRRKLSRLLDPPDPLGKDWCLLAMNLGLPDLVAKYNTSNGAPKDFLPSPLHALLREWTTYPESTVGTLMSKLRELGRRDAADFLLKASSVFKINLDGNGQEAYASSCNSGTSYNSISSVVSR
Tyrosine-protein kinase Blk (Homo sapiens), sequence (P51451 2-505 limits assumed): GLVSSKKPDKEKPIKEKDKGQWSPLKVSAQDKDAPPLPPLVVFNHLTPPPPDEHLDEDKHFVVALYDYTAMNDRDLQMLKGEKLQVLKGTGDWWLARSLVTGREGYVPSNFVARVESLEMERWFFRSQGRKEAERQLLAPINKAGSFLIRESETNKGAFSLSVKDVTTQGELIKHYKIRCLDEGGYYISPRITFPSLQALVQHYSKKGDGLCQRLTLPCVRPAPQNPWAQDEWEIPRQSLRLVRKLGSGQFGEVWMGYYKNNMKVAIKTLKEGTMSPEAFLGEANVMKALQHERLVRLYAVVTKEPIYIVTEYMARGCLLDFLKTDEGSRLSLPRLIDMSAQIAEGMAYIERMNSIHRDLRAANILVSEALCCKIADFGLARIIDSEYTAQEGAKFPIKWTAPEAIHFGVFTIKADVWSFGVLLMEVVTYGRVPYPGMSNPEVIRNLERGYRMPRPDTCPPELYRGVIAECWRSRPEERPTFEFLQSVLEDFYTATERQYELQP
Macrophage colony-stimulating factor 1 receptor (Homo sapiens), sequence (P07333 whole entry): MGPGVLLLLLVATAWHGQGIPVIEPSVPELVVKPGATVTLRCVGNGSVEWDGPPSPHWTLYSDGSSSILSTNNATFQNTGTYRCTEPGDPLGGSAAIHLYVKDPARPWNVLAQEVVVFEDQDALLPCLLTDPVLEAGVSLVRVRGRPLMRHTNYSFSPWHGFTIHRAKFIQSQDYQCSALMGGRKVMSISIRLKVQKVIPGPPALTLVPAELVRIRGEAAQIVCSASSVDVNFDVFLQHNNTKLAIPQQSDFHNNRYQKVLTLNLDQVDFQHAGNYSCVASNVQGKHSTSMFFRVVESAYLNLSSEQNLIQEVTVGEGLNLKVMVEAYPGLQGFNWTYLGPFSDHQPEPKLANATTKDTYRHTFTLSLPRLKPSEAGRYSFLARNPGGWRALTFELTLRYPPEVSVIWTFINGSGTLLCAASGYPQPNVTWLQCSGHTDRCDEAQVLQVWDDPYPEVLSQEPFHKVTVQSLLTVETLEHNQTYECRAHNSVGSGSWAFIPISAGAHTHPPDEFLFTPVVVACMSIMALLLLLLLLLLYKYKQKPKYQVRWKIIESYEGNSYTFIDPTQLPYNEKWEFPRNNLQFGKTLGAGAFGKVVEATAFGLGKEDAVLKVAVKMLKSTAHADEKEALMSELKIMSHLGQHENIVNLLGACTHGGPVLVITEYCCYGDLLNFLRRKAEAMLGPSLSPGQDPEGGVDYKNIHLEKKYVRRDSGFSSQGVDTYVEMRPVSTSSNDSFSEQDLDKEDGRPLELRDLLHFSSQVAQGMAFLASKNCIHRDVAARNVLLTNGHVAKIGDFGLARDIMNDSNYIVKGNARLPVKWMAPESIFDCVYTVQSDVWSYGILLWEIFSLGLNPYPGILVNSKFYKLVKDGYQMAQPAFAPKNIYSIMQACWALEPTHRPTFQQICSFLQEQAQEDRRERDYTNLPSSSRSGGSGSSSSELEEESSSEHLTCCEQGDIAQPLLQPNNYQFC
Cytoplasmic tyrosine-protein kinase BMX (Homo sapiens), sequence (P51813 whole entry): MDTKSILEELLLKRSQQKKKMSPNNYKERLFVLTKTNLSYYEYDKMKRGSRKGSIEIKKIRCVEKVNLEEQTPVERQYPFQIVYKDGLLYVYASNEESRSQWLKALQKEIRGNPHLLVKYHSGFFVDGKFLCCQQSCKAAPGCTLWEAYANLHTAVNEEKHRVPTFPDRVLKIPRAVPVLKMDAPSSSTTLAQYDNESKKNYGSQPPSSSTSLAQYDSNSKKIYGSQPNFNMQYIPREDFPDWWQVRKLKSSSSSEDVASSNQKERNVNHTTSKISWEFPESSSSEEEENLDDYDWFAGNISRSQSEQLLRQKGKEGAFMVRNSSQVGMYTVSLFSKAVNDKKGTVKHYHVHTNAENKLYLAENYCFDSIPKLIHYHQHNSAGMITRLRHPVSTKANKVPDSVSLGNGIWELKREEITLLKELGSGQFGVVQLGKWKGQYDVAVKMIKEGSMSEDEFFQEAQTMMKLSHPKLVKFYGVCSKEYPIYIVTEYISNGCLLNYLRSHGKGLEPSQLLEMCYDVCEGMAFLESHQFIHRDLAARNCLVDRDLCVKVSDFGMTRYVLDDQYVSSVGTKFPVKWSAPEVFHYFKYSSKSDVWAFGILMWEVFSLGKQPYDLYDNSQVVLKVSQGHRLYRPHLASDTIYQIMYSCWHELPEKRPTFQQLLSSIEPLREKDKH

Structure (SMILES): CN1CCN(c2ccc(Nc3ncc(F)c(Nc4ccccc4C(=O)NN)n3)cc2)CC1
- inhibition [1]: Dose-Dependent Effect
- inhibition [2]: -1%
- Activity [3]: Non-Toxic
- inhibition [4]: 47%
- Activity [5]: Non-Toxic
- IC50 (JeKo-1 [6]): 17 nM
- inhibition [7]: 67%
- inhibition [8]: -6%
- inhibition [9]: 79%
- IC50 [10]: 47 nM
- Activity [11]: Non-Toxic
- Activity (JeKo-1 [12]): Dose-Dependent Effect
- Activity [13]: Non-Toxic
- inhibition [14]: 24%
- inhibition [15]: 17%
- Activity (JeKo-1 [16]): 0.37%
- Activity (JeKo-1 [17]): Active
- Activity (JeKo-1 [18]): 0.18%
- Ratio IC50 (K562): 1.3
- Activity (JeKo-1 [19]): 0.31 g
- inhibition [20]: 10%
- inhibition [21]: 62%
- Ratio IC50 (JeKo-1 [22]): 1.3
- Ratio IC50 (JeKo-1 [23]): 6
- Activity (JeKo-1 [24]): 0.47%
- inhibition [25]: 13%
- survival at 336 h [26]: 40%
- Ratio IC50 (MOLT-4): 6
- half-life [27]: 41.5 min
- Activity (JeKo-1 [28]): 0.11%
- Activity (MV4-11 [29]): Active
- inhibition [30]: 17%
- Activity (MV4-11 [31]): Active
- inhibition [32]: 11%
- CLint scaled [33]: 30.1 mL/min/kg
